Experiments:
[1] = Stability of PAF in stored monocyte conditioned media; type: physicochemical; conditions: -80° C., various periods of time; within experimental error
From the text: In addition, PAF was extracted from the monocyte supernatants and assayed using the following highly specific and sensitive radioimmunoassay. As the most predominant bioactive forms of PAF secreted by monocytes are the C16 and C18 alkyl moieties (Sugiura and Waku, (1987) Platelet-Activating Factor and Related Lipid Mediators, F. Snyder Ed. Plenum Press, N.Y. 55-85; Prescott et al. (1990) Proc. Natl. Acad. Sci. U.S.A. 81:3534-3538), PAF was quantitated using the highly specific and sensitive ^125 I-RIA kit manufactured by NEN Research Products (Du Pont Canada, Mississauga, Ontario, Canada) following extraction of the monocyte supernatants with 5 mL each of methanol and chloroform and 3.5 mL of water per mL of sample. The recovered chloroform layers, dried under nitrogen, were reconstituted in the PAF assay kit buffer prior to analysis. […] Recoveries of PAF (90±1%, n=>130) were assessed by adding trace amounts of ^3 H-PAF to the sample prior to extraction and determining the % recoveries using a liquid scintillation counter (Model-7000, Beckman Instruments Canada). Iodinated samples were counted on a Beckman Gamma 5500 counter (Beckman Instruments, Fullerton, Calif.). […]

ECs = conditions: stimulation with PAF; D'Humieres et al. (1986); cited from earlier work
endothelial cells (ECs) = assay: vWf release from ECs exposed directly to PAF or thrombin; conditions: for Increase in vWf release (%), BTP-dioxolane absent: 4 hours
Procedure: Synthetic PAF (1-O-alkyl-2-acetyl-sn-glyceryl-3-phosphorylcholine; Sigma #P-9525) prepared from bovine heart lecithin (Demopoulos et al. (1979) J. Biol. Chem. 254: 9355-358) was 99% pure by TLC analysis, HPLC analysis indicated this product consisted of 70% C16 and 13% C18 forms of PAF (Mita et al., (1989) Anal. Biochem. 180:131-135). After removal of chloroform, PAF was resuspended in DMEM/F12 culture medium containing 1% Nutridoma-HU (final protein concentration of 40 μM stock solution). After sonication for 3×1 minute periods, the PAF solution was diluted and used immediately.
Media with or without thrombin (@5 units/mL) served as positive and negative controls respectively. ECs were incubated for 1, 10, 20 or 30 minutes and 1, 2, 4, 6 and 24 hours in the PAF and thrombin time course studies. The EC conditioned media were recovered, centrifuged to remove any cell debris, and then frozen at -80° C. for a maximum period of 4 weeks prior to analyses. […] Where appropriate ECs were preincubated with BTP-dioxolane which was not cytotoxic to the cells as determined by the dye exclusion test.
Endothelial cells (ECs) were harvested from human umbilical cord vein as described by Jaffe et al. ((1973) Culture of Human Endothelial Cells Derived from Umbilical Veins: Identification by Morphologic and Immunologic Criteria, J. Clin. Invest. 52:2745-2756) and modified by Hashemi et al. (1990, supra). Endothelial cells were subcultured in 0.2% (w/v) gelatin-coated, 12-well Linbro™ polystyrene, tissue culture plates (Flow Laboratories, Mississauga, Ontario), then plated at a density of 1-2×10^4 /well and grown to confluence.
The standard consisted of a pool of plasma from 20 normal individuals previously determined to contain 1 unit of vWf per mL by the procedure of Zimmerman et al. (1977, J. Clin. Invest. 59:984-989). […] For some experiments, the maximum vWf that could be released was determined. Following incubation, the EC conditioned media were recovered and fresh media containing 0.05% (v/v) Tween 20 and 10 μM each of the protease inhibitors D-phenylalanyl-phenylalanyl-arginyl-chloromethyl ketone, D-phenylalanyl-propyl-arginyl-chloromethyl ketone and 1,5-Dansyl-glutamyl-glycyl-arginyl-chloromethyl ketone were added to the EC monolayers of each corresponding well. The cells were freeze-thawed three times and, to assure complete breakdown of the cell membranes as well as the Weibel-Palade bodies, disrupted in a glass homogenizer using a motor-driven teflon pestle. After centrifugation, total vWf concentration was determined in the supernatants.
In order to examine the responsiveness of ECs to direct PAF exposure, we incubated the monolayers of ECs with 0-300 pico molar (pM) PAF for a period of 4 hours at 37° C. and determined the amount of vWf released into the EC media. […] To determine the time course of PAF effects on vWf release, 300 pM PAF was incubated with monolayers of ECs for 1, 10, 20 and 30 minutes as well as for 1, 2, 4, 6 and 24 hours. […] As a control, the vWf release from thrombin stimulated ECs was also determined (FIG. 5).

1-O-alkyl-2-acetyl-sn-glyceryl-3-phosphorylcholine [PAF]
PAF values in monocyte conditioned media after storage [1]: gave the same values | PGI2 release from ECs (ECs): release PGI2 in response to stimulation | vWf release from ECs (maximal) (endothelial cells (ECs); 300 pM PAF, 30 minutes, P<0.05, n=5): 151% | vWf release as share of the maximal vWf recoverable (endothelial cells (ECs); 300 pM PAF, 30 minutes, […]): ~ 4% | time course of vWf release from ECs (endothelial cells (ECs); 300 pM PAF, FIG. 5): released vWf at all time points up to 24 hours | PAF concentration range of greatest vWf release response (endothelial cells (ECs); FIG. 4, 4 hours at 37° C., n=5): 100 to 300 pM | Increase in vWf release (%), BTP-dioxolane absent (endothelial cells (ECs); PAF 100 pM, n=5): 190.8 ± 46.6% | Increase in vWf release (%), BTP-dioxolane absent (endothelial cells (ECs); PAF 300 pM, n=5): 204.2 ± 48.7%

Source: US5631246A, “Use of PAF” (The Canadian Red Cross Society, priority 1993, dated 1997)
